{"source": "patent US5998462A", "about": "“5-alkyl indole compounds” (Allelix Biopharmaceuticals Inc., priority 1996, dated 1999)", "molecular_target": "T1, 5-HT1D-like receptor (Oryctolagus cuniculus, UniProt P49144)", "T1 construct": "Ring segments of the vein (4-5 mm in length) were cut and the endothelium gently removed; from tissue; host or cells: saphenous vein rings, endothelium removed, male New Zealand White rabbits", "T1 sequence (P49144 whole entry)": "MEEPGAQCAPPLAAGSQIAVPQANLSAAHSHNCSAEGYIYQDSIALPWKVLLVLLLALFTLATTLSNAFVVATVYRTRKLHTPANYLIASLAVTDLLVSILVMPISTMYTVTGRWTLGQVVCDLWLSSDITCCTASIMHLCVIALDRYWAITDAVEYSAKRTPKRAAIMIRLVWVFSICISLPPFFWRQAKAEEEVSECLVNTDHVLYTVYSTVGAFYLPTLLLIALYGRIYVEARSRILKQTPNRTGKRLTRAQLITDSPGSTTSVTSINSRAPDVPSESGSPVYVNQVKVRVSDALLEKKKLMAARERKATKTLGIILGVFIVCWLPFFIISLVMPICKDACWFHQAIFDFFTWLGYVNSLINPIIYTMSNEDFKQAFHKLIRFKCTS", "test": "Agonist assay: contraction of rabbit isolated saphenous vein (5-HT1D-like receptor agonist activity)", "parameters": "species or system rabbit (New Zealand White)", "experimental": "The saphenous veins from both the left and right side were cleaned of fat and connective tissue and placed in Krebs solution (118 mM NaCl, 11 mM glucose, 25 mM NaHCO3, 4.7 mM KCl, 2.5 mM CaCl2.2H2 O, 1.2 mM KH2 PO4, and 1.2 mM MgSO4.7H2 O. Ring segments of the vein (4-5 mm in length) were cut and the endothelium gently removed. The segments were mounted in 10 mL baths containing Krebs buffer and were constantly aerated with 95% oxygen/5% carbon dioxide and maintained at 37° C. and pH 7.4 in order to record the isometric tension. A resting tension of 2.5 g was applied and the tissues allowed to equilibrate for 90 minutes, with washing every 15-20 minutes. After the equilibrium period, the rings were depolarized by the addition of two aliquots of KCl (80 mM final concentration) separated by a 20 minute washing period. The tissues were then exposed to prazosin, idazoxan and indomethacin (all 1 μM final concentration) for 30 minutes in order to exclude the actions of α1 - and α2 -adrenergic receptors and prostaglandin receptors respectively. […] Responses were calculated as a percentage of the maximal contraction evoked by 80 mM KCl. Only one compound was tested per preparation.\nEC50 represents the concentration of the compound which causes 50% of the maximum contraction effected by it.", "key": {"[1]": {"conditions": "rabbit isolated saphenous vein rings, 37° C., pH 7.4, prazosin, idazoxan and indomethacin 1 μM present, read-out: EC50 (concentration of the compound which causes 50% of the maximum contraction effected by it)"}}, "note": "Where two headings read alike, the source gives them in different places.", "data": [{"molecule": "CC(C)(C)c1ccc2[nH]cc(CCN3CCCC3)c2c1", "note": "[Example 8b, 5-Tert-butyl-3-(2-pyrrolidinylethyl)-1H-indole]", "values": [{"measurement": "EC50", "value": 1200, "unit": "nM"}]}, {"molecule": "CCc1ccc2[nH]cc(C[C@H]3CCCN3C)c2c1", "note": "[Example 11b, (R)-5-Ethyl-3-[(N-methylpyrrolidin-2-yl)methyl]-1 H-indole]", "values": [{"measurement": "EC50", "value": 15, "unit": "nM"}]}, {"molecule": "CCc1ccc2[nH]cc(C3CCN(C)C3)c2c1", "note": "(stereo not drawn) [Example 11c, 5-Ethyl-3-(N-methylpyrrolidin-3-yl)-1H-indole]", "values": [{"measurement": "EC50", "setting": "[1]", "value": 900, "unit": "nM"}]}, {"molecule": "Cc1ccc2[nH]cc(C[C@H]3CCCN3)c2c1", "note": "[Example 7j, (R)-5-Methyl-3-[(pyrrolidin-2-yl)methyl]-1H-indole]", "values": [{"measurement": "EC50", "value": 830, "unit": "nM"}]}, {"molecule": "Cc1ccc2[nH]cc(C3CCN(C)C3)c2c1", "note": "(stereo not drawn) [Example 7i, 5-Methyl-3-(N-methylpyrrolidin-3-yl)-1H-indole]", "values": [{"measurement": "EC50", "setting": "[1]", "value": 470, "unit": "nM"}]}, {"molecule": "CN1CCC[C@@H]1Cc1c[nH]c2ccc(C(C)(C)C)cc12", "note": "[Example 7f, (R)-3-[(N-Methylpyrrolidin-2-yl)methyl]-5-tert-butyl-1H-indole]", "values": [{"measurement": "EC50", "value": 52, "unit": "nM"}]}, {"molecule": "Cc1ccc2[nH]cc(C[C@@H]3CCCN3C)c2c1", "note": "[Example 7h, (S)-3-[(N-Methylpyrrolidin-2-yl)methyl]-5-methyl-1H-indole]", "values": [{"measurement": "EC50", "value": 1800, "unit": "nM"}]}, {"molecule": "Cc1ccc2[nH]cc(C[C@H]3CCCN3C)c2c1", "note": "[Example 7e, (R)-3-[(N-Methylpyrrolidin-2-yl)methyl]-5-methyl-1H-indole]", "values": [{"measurement": "EC50", "value": 100, "unit": "nM"}]}, {"molecule": "CC(C)c1ccc2[nH]cc(C[C@H]3CCCN3C)c2c1", "note": "[Example 7g, (R)-3-[(N-Methylpyrrolidin-2-yl)methyl]-5-isopropyl-1H-indole]", "values": [{"measurement": "EC50", "value": 29, "unit": "nM"}]}, {"molecule": "Cc1ccc2[nH]cc(CCN3CC=CC3)c2c1", "note": "[Example 8d, 5-Methyl-3-(2-pyrrolinylethyl)-1H-indole]", "values": [{"measurement": "EC50", "value": 2900, "unit": "nM"}]}, {"molecule": "Cc1ccc2[nH]cc(CCN3CCCC3)c2c1", "note": "[Example 8c, 5-Methyl-3-(2-pyrrolidinylethyl)-1H-indole]", "values": [{"measurement": "EC50", "value": 590, "unit": "nM"}]}, {"molecule": "CC(C)c1ccc2[nH]cc(CCN3CCCC3)c2c1", "note": "[Example 8a, 5-Isopropyl-3-(2-pyrrolidinylethyl)-1H-indole]", "values": [{"measurement": "EC50", "value": 250, "unit": "nM"}]}]}
